# Laboratory results reported in patent US8778919B2, “Cyclic anilino—pyridinotriazines” (Janssen Pharmaceutica NV, priority 2005, dated 2014).
# Tests used:
# Yes (h) = Yes (h) (Homo sapiens, UniProt P07947); experiment: Kinase profiling C3.10 Yes human; assay type: biochemical; settings: test concentration of 10^−6 M
# Protocol: (§1) The in vitro inhibition of a panel of kinases was assessed using either the glass-fiber filter technology as described by Davies, S. P. et al., Biochem J. (2000), 351; p. 95-105. In the glass-fiber filter technology the activity of the kinase of interest is measured using an appropriate substrate that is incubated with the aforementioned kinase protein in the presence of (^33P) radiolabeled ATP. (^33P) Phosporylation of the substrate is subsequently measured as radioactivity bound on a glassfiber-filter.
# (§2) All kinases are pre-diluted to a 10× working concentration prior to addition into the assay. The composition of the dilution buffer for each kinase is detailed below.
# (§3) All substrates are dissolved and diluted to working stocks in de-ionised water, apart from histone H1 that is stored in 10× working stock in 20 mM MOPS pH 7.4.
# (§4) In a final reaction volume of 25 μl, Yes (h) (5-10 mU) is incubated with 8 mM MOPS pH 7.0, 0.2 mM EDTA, 0.1 mg/ml poly(Glu, Tyr) 4:1, 10 mM MgAcetate and [γ-^33P-ATP] (specific activity approx. 500 cpm/pmol, concentration as required). The reaction is initiated by the addition of the MgATP mix. After incubation for 40 minutes at room temperature, the reaction is stopped by the addition of 5 μl of a 3% phosphoric acid solution. 10 μl of the reaction is then spotted onto a Filtermat A and washed three times for 5 minutes in 75 mM phosphoric acid and once in methanol prior to drying and scintillation counting.
# cSRC (h) = cSRC (h) (Homo sapiens, UniProt P12931); experiment: Kinase profiling C3.9 cSRC human; assay type: biochemical; settings: test concentration of 10^−6 M
# Sequence of cSRC (h) (P12931 whole entry): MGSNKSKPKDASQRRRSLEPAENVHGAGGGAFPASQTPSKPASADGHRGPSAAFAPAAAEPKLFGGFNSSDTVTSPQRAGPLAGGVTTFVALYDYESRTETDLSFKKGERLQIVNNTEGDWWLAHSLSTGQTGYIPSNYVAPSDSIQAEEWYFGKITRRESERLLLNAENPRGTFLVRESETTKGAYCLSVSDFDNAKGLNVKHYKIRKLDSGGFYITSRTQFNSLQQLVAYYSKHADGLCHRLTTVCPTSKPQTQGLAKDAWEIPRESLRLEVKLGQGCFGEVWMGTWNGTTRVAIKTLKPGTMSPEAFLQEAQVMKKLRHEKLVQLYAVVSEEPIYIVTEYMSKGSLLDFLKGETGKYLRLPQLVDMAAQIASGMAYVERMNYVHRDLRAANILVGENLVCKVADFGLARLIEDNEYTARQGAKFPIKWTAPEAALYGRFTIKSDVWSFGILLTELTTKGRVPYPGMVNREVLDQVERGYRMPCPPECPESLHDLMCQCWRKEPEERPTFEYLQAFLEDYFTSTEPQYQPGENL
# Protocol: as §1, §2, §3
# In a final reaction volume of 25 μl, cSRC (h) (5-10 mU) is incubated with 8 mM MOPS pH 7.0, 0.2 mM EDTA, 250 μM KVEKIGEGTYGVVYK (Cdc2 peptide), 10 mM MgAcetate and [γ-^33P-ATP] (specific activity approx. 500 cpm/pmol, concentration as required). The reaction is initiated by the addition of the MgATP mix. After incubation for 40 minutes at room temperature, the reaction is stopped by the addition of 5 μl of a 3% phosphoric acid solution.
# 10 μl of the reaction is then spotted onto a P30 filtermat and washed three times for 5 minutes in 75 mM phosphoric acid and once in methanol prior to drying and scintillation counting.
# Chang cells = experiment: GSK-3 cellular assay (C2): 14C-D-glucose incorporation into glycogen; assay type: cell-based; settings: increase in D-glucose incorporation into glycogen, test concentration of 10^−6 M
# Protocol: Test compounds were tested for their ability to increase the incorporation of ^14C-D-glucose into glycogen in living cells. To do this, Chang cells (360,000 cells/well) were cultured in 0.5 ml of MEM Rega 3 medium supplemented with 10% fetal calf serum, 1% L-glutamine and 2% sodium carbonate. After 3 days, cells were washed with 0.5 ml of phosphate-buffered saline and overlayed with 1 ml of serum- and glucose-free DMEM medium. Then, 2 μl of compound in DMSO and 50 μl substrate (3 mM glucose and 0.5 μCi ^14C-D-glucose were added and the cultures were incubated for 90 min. Cells were then extracted with 0.5 ml of 20% KOH for 60 min at 37° C. and the cell lysates were transferred to 10 ml tubes containing 300 μl of 1 mg/ml glycogen as […]. Following the addition of 2 ml ethanol, total glycogen was precipitated overnight at −20° C. and the precipitates were recovered by centrifugation. Precipitates were then resuspended in 1 ml of water and transferred to scintillation counter vials. and the amount of ^14C-D-glucose incorporation into glycogen was measured by scintillation counting. Scores for the compounds according to the invention, were obtained at a test concentration of 10^−6 M. Score 1=10-30% increase, Score 2=30-60% increase, Score 3=60-80% increase and Score 4=>80% increase in D-glucose incorporation.
# Aurora-A (h) = target: T1, Aurora-A (h) (Homo sapiens, UniProt O14965); experiment: Kinase profiling C3.1 Aurora-A human; assay type: biochemical; settings: test concentration of 10^−6 M
# T1 sequence (O14965 1-403): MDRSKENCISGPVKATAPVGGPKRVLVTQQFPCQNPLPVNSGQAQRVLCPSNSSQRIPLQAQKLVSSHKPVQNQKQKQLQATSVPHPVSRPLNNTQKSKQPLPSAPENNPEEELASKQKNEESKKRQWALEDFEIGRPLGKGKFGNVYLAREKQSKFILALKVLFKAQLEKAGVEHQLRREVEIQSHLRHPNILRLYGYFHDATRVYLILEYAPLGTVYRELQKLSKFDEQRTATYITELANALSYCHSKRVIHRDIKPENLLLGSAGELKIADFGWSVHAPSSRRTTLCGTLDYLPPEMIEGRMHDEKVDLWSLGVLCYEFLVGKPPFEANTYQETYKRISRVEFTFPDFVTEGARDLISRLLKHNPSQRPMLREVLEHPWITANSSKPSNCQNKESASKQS
# Protocol: as §1, §2, §3
# as §4, with “Aurora-A” for “Yes”, “200 μM LRRASLG (Kemptide),” for “0.1 mg/ml poly(Glu, Tyr) 4:1,”, “P30 filtermat” for “Filtermat A”, “50” for “75”
# CDK5/p35 human = CDK5/p35 human (Homo sapiens, UniProt Q00535); experiment: Kinase profiling C3.6 CDK5/p35 human; assay type: biochemical; settings: CDK5/p35, test concentration of 10^−6 M
# Sequence of CDK5/p35 human (Q00535 whole entry): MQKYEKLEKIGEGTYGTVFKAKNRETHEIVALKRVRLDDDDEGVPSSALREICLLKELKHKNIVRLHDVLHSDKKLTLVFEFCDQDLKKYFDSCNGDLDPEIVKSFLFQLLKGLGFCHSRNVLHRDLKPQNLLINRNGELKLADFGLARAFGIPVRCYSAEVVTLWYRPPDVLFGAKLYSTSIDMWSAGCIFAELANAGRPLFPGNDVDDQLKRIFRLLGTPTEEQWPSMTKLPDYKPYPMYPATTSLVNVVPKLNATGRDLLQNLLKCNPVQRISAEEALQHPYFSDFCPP
# Sequence of CDK5/p35 human (Q15078 whole entry partner): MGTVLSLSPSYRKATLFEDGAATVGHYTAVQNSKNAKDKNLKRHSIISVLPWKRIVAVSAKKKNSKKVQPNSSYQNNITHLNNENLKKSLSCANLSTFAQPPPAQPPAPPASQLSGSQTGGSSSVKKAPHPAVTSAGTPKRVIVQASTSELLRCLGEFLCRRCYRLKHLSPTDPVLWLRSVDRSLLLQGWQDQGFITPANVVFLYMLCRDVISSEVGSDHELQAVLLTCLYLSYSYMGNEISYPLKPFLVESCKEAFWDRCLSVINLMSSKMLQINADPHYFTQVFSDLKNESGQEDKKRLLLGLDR
# Summary of the method: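 Radiometric filter-binding assay: human CDK5/p35 (5-10 mU) with 0.1 mg/ml histone H1 substrate in 8 mM MOPS pH 7.0, 0.2 mM EDTA, 10 mM Mg acetate and [γ-33P]ATP. Incubated 40 min at room temperature, stopped with phosphoric acid. Substrate 33P incorporation counted on P30 filtermat by scintillation.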
# Sequence of Yes (h) (P07947 whole entry): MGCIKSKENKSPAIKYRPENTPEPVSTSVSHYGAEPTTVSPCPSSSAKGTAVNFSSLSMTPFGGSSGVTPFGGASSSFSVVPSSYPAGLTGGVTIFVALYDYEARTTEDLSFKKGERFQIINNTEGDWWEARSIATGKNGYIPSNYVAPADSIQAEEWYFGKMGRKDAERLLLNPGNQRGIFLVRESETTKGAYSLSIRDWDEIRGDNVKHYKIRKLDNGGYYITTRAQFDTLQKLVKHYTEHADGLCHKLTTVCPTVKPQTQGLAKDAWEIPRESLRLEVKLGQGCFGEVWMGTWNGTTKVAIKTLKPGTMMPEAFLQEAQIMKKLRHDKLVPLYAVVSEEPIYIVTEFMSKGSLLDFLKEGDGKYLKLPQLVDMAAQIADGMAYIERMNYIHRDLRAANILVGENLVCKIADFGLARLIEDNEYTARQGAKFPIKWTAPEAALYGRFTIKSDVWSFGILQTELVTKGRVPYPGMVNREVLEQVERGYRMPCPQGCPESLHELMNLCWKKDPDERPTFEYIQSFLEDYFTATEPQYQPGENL
C3.10 score (Yes (h)),C3.9 score (cSRC (h)),C3.1 score (Aurora-A (h)),C3.6 score (CDK5/p35 human),SMILES,C2 Score (Chang cells)
3 (Score 3 = 60-80% inhibition),3 (Score 3 = 60-80% inhibition),1 (Score 1 = 10-30% inhibition),4 (Score 4 = >80% inhibition),CN1CC(=O)NCC#Cc2cc(ccn2)-c2ncnc(n2)Nc2cccc(c2)C1 [Compound 1],3 (Score 3=60-80% increase)
4 (Score 4 = >80% inhibition),4 (Score 4 = >80% inhibition),2 (Score 2 = 30-60% inhibition),4 (Score 4 = >80% inhibition),CN1CC(=O)NC/C(Cl)=C/c2cc(ccn2)-c2ncnc(n2)Nc2cccc(c2)C1 [Compound 2],4 (Score 4=>80% increase in D-glucose incorporation)
2 (Score 2 = 30-60% inhibition),2 (Score 2 = 30-60% inhibition),1 (Score 1 = 10-30% inhibition),3 (Score 3 = 60-80% inhibition),CN1CCC(=O)NCCCc2cc(ccn2)-c2ncnc(n2)Nc2cccc(c2)C1 [Compound 3],–
2 (Score 2 = 30-60% inhibition),2 (Score 2 = 30-60% inhibition),1 (Score 1 = 10-30% inhibition),4 (Score 4 = >80% inhibition),CN1CCCc2cc(ccn2)-c2ncnc(n2)Nc2cccc(c2)CNC(=O)C1 [Compound 7],3 (Score 3=60-80% increase)
–,–,–,3 (Score 3 = 60-80% inhibition),CN1CC(=O)NCCCc2cc(ccn2)-c2ncnc(n2)Nc2cccc(c2)C1 [Compound 8],4 (Score 4=>80% increase in D-glucose incorporation)
–,–,–,2 (Score 2 = 30-60% inhibition),O=C1CN2CCN(CC2)Cc2cccc(c2)Nc2ncnc(n2)-c2ccnc(c2)CCCN1 [Compound 9],4 (Score 4=>80% increase in D-glucose incorporation)
2 (Score 2 = 30-60% inhibition),2 (Score 2 = 30-60% inhibition),1 (Score 1 = 10-30% inhibition),4 (Score 4 = >80% inhibition),CN1CC(=O)NCCCc2cc(ccn2)-c2ncnc(n2)Nc2cccc(c2)C1 [Compound 10],4 (Score 4=>80% increase in D-glucose incorporation)
1 (Score 1 = 10-30% inhibition),1 (Score 1 = 10-30% inhibition),1 (Score 1 = 10-30% inhibition),1 (Score 1 = 10-30% inhibition),CN1CCN(CCN2CCC(=O)NCCCc3cc(ccn3)-c3ncnc(n3)Nc3cccc(c3)C2)CC1 [Compound 11],–
2 (Score 2 = 30-60% inhibition),2 (Score 2 = 30-60% inhibition),1 (Score 1 = 10-30% inhibition),2 (Score 2 = 30-60% inhibition),O=C1NCCCc2cc(ccn2)-c2ncnc(n2)Nc2cccc(c2)CN2CCCC12 (stereo not shown) [Compound 12],–
1 (Score 1 = 10-30% inhibition),2 (Score 2 = 30-60% inhibition),2 (Score 2 = 30-60% inhibition),1 (Score 1 = 10-30% inhibition),CN1CCCC(=O)NCCCc2cc(ccn2)-c2ncnc(n2)Nc2cccc(c2)C1 [Compound 13],–
1 (Score 1 = 10-30% inhibition),2 (Score 2 = 30-60% inhibition),2 (Score 2 = 30-60% inhibition),1 (Score 1 = 10-30% inhibition),O=C1NCCCc2cc(ccn2)-c2ncnc(n2)Nc2cccc(c2)CN2C[C@H](O)C[C@@H]12 [Compound 14],–
1 (Score 1 = 10-30% inhibition),1 (Score 1 = 10-30% inhibition),1 (Score 1 = 10-30% inhibition),1 (Score 1 = 10-30% inhibition),O=C1NCCCc2cc(ccn2)-c2ncnc(n2)Nc2cccc(c2)CN2CCCC1C2 (stereo not shown) [Compound 15],–
–,–,–,4 (Score 4 = >80% inhibition),CCN1CCCc2cc(ccn2)-c2ncnc(n2)Nc2cccc(c2)CCNC(=O)C1 [Compound 30],4 (Score 4=>80% increase in D-glucose incorporation)
–,–,–,4 (Score 4 = >80% inhibition),CN1CC(=O)NCCCc2cc(ccn2)-c2ncnc(n2)Nc2cc(Cl)cc(c2)C1 [Compound 33],4 (Score 4=>80% increase in D-glucose incorporation)
–,–,–,4 (Score 4 = >80% inhibition),CCN1CC(=O)NCCCc2cc(ccn2)-c2ncnc(n2)Nc2cc(Cl)cc(c2)C1 [Compound 34],4 (Score 4=>80% increase in D-glucose incorporation)
2 (Score 2 = 30-60% inhibition),2 (Score 2 = 30-60% inhibition),1 (Score 1 = 10-30% inhibition),4 (Score 4 = >80% inhibition),O=C1CCN2CCN(CC2)Cc2cccc(c2)Nc2ncnc(n2)-c2ccnc(c2)CCCN1 [Compound 35],4 (Score 4=>80% increase in D-glucose incorporation)
–,–,–,3 (Score 3 = 60-80% inhibition),O=C1CN2CCN(CC2)Cc2cc(Cl)cc(c2)Nc2ncnc(n2)-c2ccnc(c2)CCCN1 [Compound 41],4 (Score 4=>80% increase in D-glucose incorporation)
–,–,–,4 (Score 4 = >80% inhibition),O=C1NCCCc2cccc(c2)-c2ncnc(n2)Nc2cccc(c2)CN[C@H]1CO [Compound 46],4 (Score 4=>80% increase in D-glucose incorporation)
2 (Score 2 = 30-60% inhibition),1 (Score 1 = 10-30% inhibition),–,3 (Score 3 = 60-80% inhibition),CCN1CC(=O)NCCCc2cccc(c2)-c2ncnc(n2)Nc2cccc(c2)C1 [Compound 54],4 (Score 4=>80% increase in D-glucose incorporation)
1 (Score 1 = 10-30% inhibition),–,–,3 (Score 3 = 60-80% inhibition),O=C1CN2CCN(CC2)Cc2cccc(c2)Nc2ncnc(n2)-c2ccc(F)c(c2)CCCN1 [Compound 66],4 (Score 4=>80% increase in D-glucose incorporation)
